In US10130633B2, “Compounds” (BAYER PHARMA AKTIENGESELLSCHAFT, priority 2013, dated 2018) one finds IC50 data, which are given here for ten molecules.

pIC50: −log10 of the molar value. Where a name gives a salt, the structure may show the parent alone.

For assay [1], the system named is constitutive active colorectal cancer cell (CRC) Wnt pathway. In words: HCT116 TOPFlash cellular reporter assay (Super TopFlash luciferase), constitutive active Wnt pathway. The format is cell-based. As to conditions: HCT116 TOP reporter cells, 36 hours incubation, luciferase expression. The method, then: In order to discover and characterize small molecules which inhibit the constitutive active colorectal cancer cell (CRC) Wnt pathway, a cellular reporter assay was employed. […] Stable transfectants were generated by cotransfection with pcDNA3 and selection of stable transfected cells with 1 mg/ml G418.
On the technique in general: Reporter assays use an easily measured gene product as a stand-in for the process of interest.

The test system of assay [2] is HCT116 FOP control reporter cell line. Description: HCT116 FOPFlash control reporter assay (FOP control vector, non-functional TCF elements). The format is cell-based. To be noted: HCT116 FOP control reporter cells, 36 hours incubation, luciferase expression. From the text:
In a parallel approach, HCT116 cells were cotransfected with the FOP control vector and pcDNA3. The FOP vector is identical to the TOP construct, but it contains instead of functional TCF elements a randomized, non-functional sequence. For this transfection a stable transfected cell line was generated as well.

Take `CC(C(=O)Nc1cc(C(=O)Nc2ccc(-c3cccc(F)c3)nc2)ccc1OC(F)(F)F)N1CCOCC1` (centres unmarked) [Example 183, N-[6-(3-fluorophenyl)pyridin-3-yl]-3-{[2-(morpholin-4-yl)propanoyl]amino}-4-(trifluoromethoxy)benzamide]: the pIC50 (usually −log10 of the IC50, conventionally taken in molar units) in assay [1] was 7.54; in assay [2], ≤ 4.30.

Consider `CC(C(=O)Nc1cc(NC(=O)c2ccc(-c3ccccc3F)nc2)ccc1OC(F)(F)F)N1CCOCC1` (centres unmarked) [Example 206, 6-(2-fluorophenyl)-N-[3-{[2-(morpholin-4-yl)propanoyl]amino}-4-(trifluoromethoxy)phenyl] nicotinamide], for which the pIC50 in assay [1] is 7.06; in assay [2] (Homo sapiens, HCT-116, 36 h), 4.44.

For `O=C(Nc1ccc(-c2ccccc2F)nc1)c1ccc(F)c(NC(=O)C2(N3CCOCC3)CC2)c1` [Example 77, 4-fluoro-N-[6-(2-fluorophenyl)pyridin-3-yl]-3-({[1-(morpholin-4-yl)cyclopropyl]carbonyl}amino)benzamide], the pIC50 was 6.43 in assay [1] (Homo sapiens, HCT-116, 36 h) and 4.85 in assay [2] (Homo sapiens, HCT-116, 36 h).

`CC(C(=O)Nc1cc(NC(=O)c2ccc(-c3cccc(F)c3)nc2)ccc1OC(F)(F)F)N1CCOCC1` (centres unmarked) [Example 201, 6-(3-fluorophenyl)-N-[3-{[2-(morpholin-4-yl)propanoyl]amino}-4-(trifluoromethoxy)phenyl] nicotinamide]: the pIC50 in assay [1] is 6.97; in assay [2], 4.54.

For `COCc1ccc(C(=O)Nc2nnc(-c3ccccc3C)s2)cc1NC(=O)C1(N2CCN(C)CC2)CC1` [Example 258, 4-(methoxymethyl)-N-[5-(2-methylphenyl)-1,3,4-thiadiazol-2-yl]-3-({[1-(4-methylpiperazin-1-yl)cyclopropyl]carbonyl}amino)benzamide trifluoroacetate (1:1)], the pIC50 in assay [1] (Homo sapiens, HCT-116, 36 h) was 7.34; in assay [2] (Homo sapiens, HCT-116, 36 h), 4.62.

Consider `CC(C(=O)Nc1cc(NC(=O)c2ccc(-c3cccc(F)c3)nc2)ccc1OC(F)(F)F)N1C[C@@H]2C[C@H]1CO2` (relative stereo) [Example 222, 6-(3-fluorophenyl)-N-[3-({(2S*)-2-[(1S,4S)-2-oxa-5-azabicyclo[2.2.1]hept-5-yl]propanoyl}amino)-4-(trifluoromethoxy)phenyl] nicotinamide], for which the pIC50 in assay [1] was 6.58; in assay [2], 4.82.

Regarding `COCCNC(=O)c1ccc(C(=O)Nc2nnc(-c3ccccc3)s2)cc1NC(=O)CN1CCOCC1` [Example 156, N^1-(2-methoxyethyl)-2-[(morpholin-4-ylacetyl)amino]-N^4-(5-phenyl-1,3,4-thiadiazol-2-yl)terephthalamide], the negative logarithm of the IC50 (pIC50) was 6.27 in assay [1] (Homo sapiens, HCT-116, 36 h) and ≤ 4.30 in assay [2] (Homo sapiens, HCT-116, 36 h).

For `CC(C(=O)Nc1cc(C(=O)Nc2nnc(-c3ccccc3)s2)ccc1CS(C)(=O)=O)N1CCN(C)CC1` (centres unmarked) [Example 232, 3-{[2-(4-methylpiperazin-1-yl)propanoyl]amino}-4-[(methylsulfonyl)methyl]-N-(5-phenyl-1,3,4-thiadiazol-2-yl)benzamide], the pIC50 in assay [1] was 5.66; in assay [2], ≤ 4.30.

Turning to `CN1CCN(CC(=O)Nc2cc(C(=O)Nc3nnc(-c4cccc(C#N)c4)s3)ccc2OC(F)(F)F)CC1` [Example 267, N-[5-(3-cyanophenyl)-1,3,4-thiadiazol-2-yl]-3-{[(4-methylpiperazin-1-yl)acetyl]amino}-4-(trifluoromethoxy)benzamide], the pIC50 in assay [1] (Homo sapiens, HCT-116, 36 h) is 6.44; in assay [2] (Homo sapiens, HCT-116, 36 h), ≤ 4.30.

Regarding `CC(C(=O)Nc1cc(C(=O)Nc2ccc(-c3ccccc3F)nc2)ccc1C(F)(F)F)N1CCOCC1` (centres unmarked) [Example 225, N-[6-(2-fluorophenyl)pyridin-3-yl]-3-{[2-(morpholin-4-yl)propanoyl]amino}-4-(trifluoromethyl)benzamide], the pIC50 in assay [1] is 6.63; in assay [2], 4.95.
